One compound from US20060019312A1, “CIS-interactions between MHC molecules and co-expressed proteins, related neurological and non-neurological disorders and related therapeutic/diagnostic utilities” (priority 2004, published 2006) can be followed below.

This test deals with GluR1 / MHC class I (b2m). Description: Co-immunoprecipitation of GluR1 with anti-b2m antibodies from brain slices, Western blot with anti-GluR1. It is filed as cell-based, mouse. To be noted: NMDA 40 micromolar in ACSF, 3 minutes, 30 min wash. On the procedure: FIG. 6 is a representation of a Western blot which illustrates that the NMDA-dependent Glutamate receptor co-immunoprecipitates with an MHC Class I molecule; 400-micron-thick slices of adult mouse brain (wild type or b2m-/-TAP-/- [MHC class I-deficient]) were cut and allowed to recover in oxygenated (95% O2, 5% CO2) artifical cerebro-spinal fluid (ACSF) for 1 hour at room temperature; a subset of slices were then transferred to a recording chamber and allowed to recover for 40 min in flowing oxygenated ACSF (2 ml/minute); these slices were treated with NMDA (40 micromolar in ACSF, 3 minutes) and then washed for 30 min in oxygenated ACSF; at this time, all slices (treated and untreated) were homogenized as below and processed for immunoprecipitation with antibodies against b2m, IgG, or GluR1, and the resulting precipitates were probed in Western blots with antibodies against GluR1.
Hippocampal slice (400 um) samples were prepared by homogenizing tissue in NP40 Lysis buffer (50 mM Tris, 150 mM NaCl, 1 mM EDTA, 1% NP40, pH 7.6) with protease inhibitors (1 ug/mL aprotinin, 1 ug/mL leupeptin, 1 ug/mL pepstatin, 1 mM Na orthovanadate, 1 mM PMSF, phosphatase inhibitor cocktail sigma, 1:100). After letting the tissue sit on ice for 15 min., samples were centrifuged at 13,000 rpm, 4°, for 10 min. […]

In the case of `CN[C@H](CC(=O)O)C(=O)O` [NMDA], for the setting “MHC-deficient (b2m-/- TAP-/-; KO) adult mouse brain slices”, the “co-immunoprecipitation of GluR1 with anti-b2m antibodies” value is “fails to induce coimmunoprecipitation of GluR1”. Besides, the “co-immunoprecipitation of GluR1 with antibodies against the light chain of MHC class I (b2m)” value (WT adult mouse brain slices) is reported as “co-precipitates GluR1 only after NMDA treatment”.
